From patent publication US20230295200A1 (REGENTS OF THE UNIVERSITY OF MICHIGAN, priority 2022, published 2023)

How the values were obtained:
STAT6 protein = molecular target: T1, STAT6 protein (Homo sapiens, UniProt P42226); experiment: Fluorescence polarization (FP) binding assay, STAT6; conditions: FP competition, 5 nM fluorescein-labeled tracer, 200 nM protein, PBS pH7.4; read-out: Binding STAT6
T1 sequence (P42226 1-847): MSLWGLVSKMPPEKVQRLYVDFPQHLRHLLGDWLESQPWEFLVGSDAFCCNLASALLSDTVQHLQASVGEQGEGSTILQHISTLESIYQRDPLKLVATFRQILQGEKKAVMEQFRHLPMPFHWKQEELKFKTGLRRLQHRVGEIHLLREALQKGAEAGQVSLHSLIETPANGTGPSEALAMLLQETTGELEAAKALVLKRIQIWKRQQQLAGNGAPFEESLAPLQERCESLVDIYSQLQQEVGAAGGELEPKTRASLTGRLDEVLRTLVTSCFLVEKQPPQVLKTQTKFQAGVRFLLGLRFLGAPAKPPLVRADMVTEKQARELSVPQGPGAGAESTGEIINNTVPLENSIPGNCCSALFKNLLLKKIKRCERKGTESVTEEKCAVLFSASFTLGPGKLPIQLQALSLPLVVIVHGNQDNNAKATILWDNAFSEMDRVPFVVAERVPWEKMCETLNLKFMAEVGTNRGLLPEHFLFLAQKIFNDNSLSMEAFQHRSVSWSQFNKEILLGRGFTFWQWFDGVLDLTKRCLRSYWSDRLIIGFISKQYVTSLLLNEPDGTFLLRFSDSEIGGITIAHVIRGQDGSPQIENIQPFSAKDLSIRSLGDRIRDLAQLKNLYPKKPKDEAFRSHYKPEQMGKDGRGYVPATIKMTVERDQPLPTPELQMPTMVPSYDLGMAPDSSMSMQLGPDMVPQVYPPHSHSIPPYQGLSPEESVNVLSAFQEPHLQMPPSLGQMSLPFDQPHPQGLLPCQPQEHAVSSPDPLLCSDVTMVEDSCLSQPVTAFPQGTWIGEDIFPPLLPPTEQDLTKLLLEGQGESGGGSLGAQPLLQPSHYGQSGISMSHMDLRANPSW
Summary of the method: (§1)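 Tracer (fluorescein-labeled, 5 nM) was mixed with 200 nM STAT5 and/or STAT6 in PBS pH 7.4 plus 0.01% BGG, 0.01% Tween-20, 2 mM DTT. After 15 min shaking and 1 h at room temperature to equilibrium, polarization was measured and constants derived by nonlinear fitting.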

STAT5A = molecular target: T2, STAT5A (Homo sapiens, UniProt P42229); experiment: Fluorescence polarization (FP) binding assay, STAT5A; conditions: FP competition, 5 nM fluorescein-labeled tracer, 200 nM protein, PBS pH7.4
T2 sequence (P42229 1-794): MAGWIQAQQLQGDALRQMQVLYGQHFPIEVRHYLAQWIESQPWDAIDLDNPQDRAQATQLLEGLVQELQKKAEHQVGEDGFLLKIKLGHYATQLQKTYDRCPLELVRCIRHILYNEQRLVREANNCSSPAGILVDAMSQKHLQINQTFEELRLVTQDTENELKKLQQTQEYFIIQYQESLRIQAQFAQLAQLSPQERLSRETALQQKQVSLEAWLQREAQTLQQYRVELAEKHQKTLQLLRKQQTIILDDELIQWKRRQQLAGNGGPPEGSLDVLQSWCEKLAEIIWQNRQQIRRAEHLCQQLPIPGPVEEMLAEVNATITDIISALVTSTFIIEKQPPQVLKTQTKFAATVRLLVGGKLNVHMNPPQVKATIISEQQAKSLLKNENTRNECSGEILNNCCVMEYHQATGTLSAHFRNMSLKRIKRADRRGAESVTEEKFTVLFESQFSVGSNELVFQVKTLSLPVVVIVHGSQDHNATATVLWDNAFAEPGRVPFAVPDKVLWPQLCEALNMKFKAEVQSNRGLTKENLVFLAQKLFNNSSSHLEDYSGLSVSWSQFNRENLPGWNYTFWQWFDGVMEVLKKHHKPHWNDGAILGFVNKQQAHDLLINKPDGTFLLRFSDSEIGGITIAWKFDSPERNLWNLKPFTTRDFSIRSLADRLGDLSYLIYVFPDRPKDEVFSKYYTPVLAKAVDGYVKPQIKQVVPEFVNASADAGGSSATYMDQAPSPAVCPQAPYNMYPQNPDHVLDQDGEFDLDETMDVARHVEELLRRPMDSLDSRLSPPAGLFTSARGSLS
Summary of the method: as §1

Structure (SMILES) | Ki (STAT6 protein) | Ki (STAT5A)
CC(C)(C)[C@H](NC(=O)c1cc2cc(C(F)(F)P(=O)(O)O)ccc2s1)C(=O)N1Cc2ccccc2C1C(=O)N1CCO[C@@H](c2ccccc2)C1 (stereo partly drawn) [Compound 142, ((2-(((2S)-3,3-dimethyl-1-oxo-1-(1-((S)-2-phenylmorpholine-4-carbonyl)isoindolin-2-yl)butan-2-yl)carbamoyl)benzo[b]thiophen-5-yl)difluoromethyl)phosphonic acid] | 1 to 10 µM | > 10 µM
CCC(CC)[C@H](NC(=O)c1cc2cc(C(F)(F)P(=O)(O)O)ccc2s1)C(=O)N1CCC[C@H]1C(=O)N1CCO[C@H](c2ccccc2)C1 [Compound 144, ((2-(((S)-3-ethyl-1-oxo-1-((S)-2-((R)-2-phenylmorpholine-4-carbonyl)pyrrolidin-1-yl)pentan-2-yl)carbamoyl)benzo[b]thiophen-5-yl)difluoromethyl)phosphonic acid] | 0.1 to 1 µM | 1 to 10 µM
CC(C)(C)[C@H](NC(=O)c1ccc2cc(C(F)(F)P(=O)(O)O)ccc2c1)C(=O)N1CCC[C@H]1C(=O)N1CCO[C@H](c2ccccc2)C1 [Compound 145, ((6-(((S)-3,3-dimethyl-1-oxo-1-((S)-2-((R)-2-phenylmorpholine-4-carbonyl)pyrrolidin-1-yl)butan-2-yl)carbamoyl)naphthalen-2-yl)difluoromethyl)phosphonic acid] | 0.1 to 1 µM | > 10 µM
CC[C@H](NC(=O)c1cc2cc(C(F)(F)P(=O)(O)O)ccc2s1)C(=O)N1CCC[C@H]1C(=O)N1CCO[C@H](c2ccccc2)C1 [Compound 146, (difluoro(2-(((S)-1-oxo-1-((S)-2-((R)-2-phenylmorpholine-4-carbonyl)pyrrolidin-1-yl)butan-2-yl)carbamoyl)benzo[b]thiophen-5-yl)methyl)phosphonic acid] | 0.1 to 1 µM | 1 to 10 µM
C#CC[C@H](NC(=O)c1cc2cc(C(F)(F)P(=O)(O)O)ccc2s1)C(=O)N1CCC[C@H]1C(=O)N1CCO[C@H](c2ccccc2)C1 [Compound 147, (difluoro(2-(((S)-1-oxo-1-((S)-2-((R)-2-phenylmorpholine-4-carbonyl)pyrrolidin-1-yl)pent-4-yn-2-yl)carbamoyl)benzo[b]thiophen-5-yl)methyl)phosphonic acid] | 0.1 to 1 µM | > 10 µM
O=C(N[C@H](C(=O)N1CCC[C@H]1C(=O)N1CCO[C@H](c2ccccc2)C1)C1CC1)c1cc2cc(C(F)(F)P(=O)(O)O)ccc2s1 [Compound 148, ((2-(((S)-1-cyclopropyl-2-oxo-2-((S)-2-((R)-2-phenylmorpholine-4-carbonyl)pyrrolidin-1-yl)ethyl)carbamoyl)benzo[b]thiophen-5-yl)difluoromethyl)phosphonic acid] | 0.1 to 1 µM | 1 to 10 µM
CC(C)(O)[C@H](NC(=O)c1cc2cc(C(F)(F)P(=O)(O)O)ccc2s1)C(=O)N1CCC[C@H]1C(=O)N1CCO[C@H](c2ccccc2)C1 [Compound 149, (difluoro(2-(((S)-3-hydroxy-3-methyl-1-oxo-1-((S)-2-((R)-2-phenylmorpholine-4-carbonyl)pyrrolidin-1-yl)butan-2-yl)carbamoyl)benzo[b]thiophen-5-yl)methyl)phosphonic acid] | 0.1 to 1 µM | > 10 µM
CCC(CC)[C@H](NC(=O)c1cc2cc(C(F)(F)P(=O)(O)O)ccc2s1)C(=O)N1CCC[C@H]1C(=O)N1CCO[C@@H](c2ccccc2)C1 [Compound 150, ((2-(((S)-3-ethyl-1-oxo-1-((S)-2-((S)-2-phenylmorpholine-4-carbonyl)pyrrolidin-1-yl)pentan-2-yl)carbamoyl)benzo[b]thiophen-5-yl)difluoromethyl)phosphonic acid] | 1 to 10 µM | > 10 µM
CC(C)(C)[C@H](NC(=O)c1ccc2cc(C(F)(F)P(=O)(O)O)ccc2c1)C(=O)N1CCC[C@H]1C(=O)N1CCO[C@@H](c2ccccc2)C1 [Compound 151, ((6-(((S)-3,3-dimethyl-1-oxo-1-((S)-2-((S)-2-phenylmorpholine-4-carbonyl)pyrrolidin-1-yl)butan-2-yl)carbamoyl)naphthalen-2-yl)difluoromethyl)phosphonic acid] | 1 to 10 µM | > 10 µM
